Experimental data taken from patent US7297353B2, “Use of anemonin for treating aseptic inflammations” (priority 2000, dated 2007).

Legend:
injured skin = experiment: Effect of anemonin on the injured skin in mice (visual irritation score); assay type: in vivo, ICR mice; design: Irritation Score: scale not given here
Experimental: ICR mice were utilized for the studies. The dorsal hair of mice was cut and injured 24 hour before experiment. 25% ethanol (0.5 ml) and the liniment solution of anemonin (0.05, 0.5, 5 mg/ml, 0.5 ml) were coated 4 h a day for 7 days on the area of hairless which was 2×2 cm^2 per mice. The skin irritation was evaluated by visual scoring (Table C-3 and C-4) everyday. The mice were continuously observed for 7 days after stopping applying. […] The injured skin of application 0.5 mg/ml anemonin also healed up within 7 days.

spleen cells = experiment: Cytotoxicity effect of anemonin (MTT assay); assay type: cell-based, ICR mice; conditions: for OD value: 48 h
Experimental: The cell viability was determined by using 3-(4,5-dimethylthiazol-2-yl)-2,5-Diphenyl-tetrazolium bromide (MTT) assay. In brief, fresh spleen cells were obtained from ICR mice (male, 7-9 weeks old), 5×10^5 of spleen cells were cultured in 96-well flat plates. The medium was contained various concentrations of anemonin. After incubation for up to 48 h, MTT solution (5 mg/m in saline) was added to the 96 plates and cells were allowed to incubate for 6 h at 37° C. After the medium had been removed 100 μl, the cell and dye crystals were solubilized by adding 100 μl 10% sodium dodecyl sulfate (SDS), and then absorption was measured at 570 nm with a model 550-microplate reader (Bio-Rad).

IFN-γ = experiment: Cytokine production from splenocytes, Sac stimulation, IFN-γ (ELISA); assay type: cell-based, murine; conditions: 24 h
Experimental: (§1) For splenocyte cytokine production assay, 5×10^6 cells per well were inoculated into a 24-well tissue culture plate with ConA (5 mg/L) or Sac (1:10000) stimulation. Different concentrations of Anemonin were added in a final volume of 2 ml. Cells were incubated at 37° C., 5% CO2 for 24 h and supernatants were harvested, IFN-γ, IL-10, IL12 (p40) and IL-2 in supernatants were measured by the sandwich enzyme-linked immunosorbent assay (ELISA) as specified by the manufacturer (BD Bioscience pharmingen, US). Concentrations of the cytokine productions were calculated based on standard curves obtained from serial dilutions of murine cytokines (r IFN-γ, rIL-10, rIL12, rIL-2). As shown in Tables C-3 and C-4, high-dose Anemonin (1-100 μg/ml) inhibited all kinds of cytokine release induced by ConA or Sac.

IL-12(p40) = experiment: Cytokine production from splenocytes, Sac stimulation, IL-12(p40) (ELISA); assay type: cell-based, murine; conditions: 24 h
Experimental: as §1

[1] = Stability test for prolonged storage; assay type: physicochemical; conditions: anemonin in the present medication
Description: According to preferred embodiments of the present invention, when the extracted anemonin or anemonin extract liquor is mixed with one or more Chinese herbs or chemical pharmaceuticals, the stability of the anemonin is not affected by the combined Chinese herbs, chemical components contained therein or the pharmaceuticals, and the amenonin can still effectively treat various aseptic inflammations.

[2] = 0.05 mg/ml on injured skin, Day 1, Treatment
[3] = 0.05 mg/ml on injured skin, Day 2, Treatment
[4] = 0.05 mg/ml on injured skin, Day 3, Treatment
[5] = 0.05 mg/ml on injured skin, Day 4, Treatment
[6] = 0.05 mg/ml on injured skin, Day 5, Treatment
[7] = 0.05 mg/ml on injured skin, Day 6, Treatment
[8] = 0.05 mg/ml on injured skin, Day 7, Treatment
[9] = 0.05 mg/ml on injured skin, Day 8, Observation
[10] = 0.05 mg/ml on injured skin, Day 9, Observation
[11] = 0.05 mg/ml on injured skin, Day 10, Observation
[12] = 0.05 mg/ml on injured skin, Day 11, Observation
[13] = 0.05 mg/ml on injured skin, Day 12, Observation
[14] = 0.05 mg/ml on injured skin, Day 13, Observation
[15] = 0.05 mg/ml on injured skin, Day 14, Observation
[16] = 0.5 mg/ml on injured skin, Day 1, Treatment
[17] = 0.5 mg/ml on injured skin, Day 2, Treatment
[18] = 0.5 mg/ml on injured skin, Day 3, Treatment
[19] = 0.5 mg/ml on injured skin, Day 4, Treatment
[20] = 0.5 mg/ml on injured skin, Day 5, Treatment
[21] = 0.5 mg/ml on injured skin, Day 6, Treatment
[22] = 0.5 mg/ml on injured skin, Day 7, Treatment
[23] = 0.5 mg/ml on injured skin, Day 8, Observation
[24] = 0.5 mg/ml on injured skin, Day 9, Observation
[25] = 0.5 mg/ml on injured skin, Day 10, Observation
[26] = 0.5 mg/ml on injured skin, Day 11, Observation
[27] = 0.5 mg/ml on injured skin, Day 12, Observation
[28] = 0.5 mg/ml on injured skin, Day 13, Observation
[29] = 0.5 mg/ml on injured skin, Day 14, Observation
[30] = 5 mg/ml on injured skin, Day 2, Treatment
[31] = 5 mg/ml on injured skin, Day 3, Treatment
[32] = 5 mg/ml on injured skin, Day 4, Treatment
[33] = 5 mg/ml on injured skin, Day 5, Treatment
[34] = 5 mg/ml on injured skin, Day 6, Treatment
[35] = 5 mg/ml on injured skin, Day 7, Treatment
[36] = 5 mg/ml on injured skin, Day 8, Observation
[37] = 5 mg/ml on injured skin, Day 9, Observation
[38] = 5 mg/ml on injured skin, Day 10, Observation
[39] = 5 mg/ml on injured skin, Day 11, Observation
[40] = 5 mg/ml on injured skin, Day 12, Observation
[41] = 5 mg/ml on injured skin, Day 13, Observation
[42] = 5 mg/ml on injured skin, Day 14, Observation

## O=C1C=CC2(CCC23C=CC(=O)O3)O1 (centres unmarked) [Anemonin, anemonin]
Injured skin; [2]
  Irritation Grade: No (No irritation <0.5)
  Irritation Score: 0
Injured skin; [3]
  Irritation Grade: No (No irritation <0.5)
  Irritation Score: 0
Injured skin; [4]
  Irritation Grade: No (No irritation <0.5)
  Irritation Score: 0
Injured skin; [5]
  Irritation Grade: No (No irritation <0.5)
  Irritation Score: 0
Injured skin; [6]
  Irritation Grade: No (No irritation <0.5)
  Irritation Score: 0
Injured skin; [7]
  Irritation Grade: No (No irritation <0.5)
  Irritation Score: 0
Injured skin; [8]
  Irritation Grade: No (No irritation <0.5)
  Irritation Score: 0
Injured skin; [9]
  Irritation Grade: No (No irritation <0.5)
  Irritation Score: 0
Injured skin; [10]
  Irritation Grade: No (No irritation <0.5)
  Irritation Score: 0
Injured skin; [11]
  Irritation Grade: No (No irritation <0.5)
  Irritation Score: 0
Injured skin; [12]
  Irritation Grade: No (No irritation <0.5)
  Irritation Score: 0
Injured skin; [13]
  Irritation Grade: No (No irritation <0.5)
  Irritation Score: 0
Injured skin; [14]
  Irritation Grade: No (No irritation <0.5)
  Irritation Score: 0
Injured skin; [15]
  Irritation Grade: No (No irritation <0.5)
  Irritation Score: 0
Injured skin; [16]
  Irritation Grade: Mild (Mide irritation <2.09)
  Irritation Score: 1
Injured skin; [17]
  Irritation Grade: No (No irritation <0.5)
  Irritation Score: 0.25
Injured skin; [18]
  Irritation Grade: No (No irritation <0.5)
  Irritation Score: 0.25
Injured skin; [19]
  Irritation Grade: No (No irritation <0.5)
  Irritation Score: 0.25
Injured skin; [20]
  Irritation Grade: No (No irritation <0.5)
  Irritation Score: 0.125
Injured skin; [21]
  Irritation Grade: No (No irritation <0.5)
  Irritation Score: 0
Injured skin; [22]
  Irritation Grade: No (No irritation <0.5)
  Irritation Score: 0
Injured skin; [23]
  Irritation Grade: No (No irritation <0.5)
  Irritation Score: 0
Injured skin; [24]
  Irritation Grade: No (No irritation <0.5)
  Irritation Score: 0
Injured skin; [25]
  Irritation Grade: No (No irritation <0.5)
  Irritation Score: 0
Injured skin; [26]
  Irritation Grade: No (No irritation <0.5)
  Irritation Score: 0
Injured skin; [27]
  Irritation Grade: No (No irritation <0.5)
  Irritation Score: 0
Injured skin; [28]
  Irritation Grade: No (No irritation <0.5)
  Irritation Score: 0
Injured skin; [29]
  Irritation Grade: No (No irritation <0.5)
  Irritation Score: 0
Injured skin; 5 mg/ml on injured skin, Day 1, Treatment
  Irritation Grade: Moderate (Moderate irritation <6.0)
Injured skin; [30]
  Irritation Grade: Moderate (Moderate irritation <6.0)
  Irritation Score: 3.4
Injured skin; [31]
  Irritation Grade: Moderate (Moderate irritation <6.0)
  Irritation Score: 3.3
Injured skin; [32]
  Irritation Grade: Moderate (Moderate irritation <6.0)
  Irritation Score: 3.3
Injured skin; [33]
  Irritation Grade: Moderate (Moderate irritation <6.0)
  Irritation Score: 3.3
Injured skin; [34]
  Irritation Grade: Moderate (Moderate irritation <6.0)
  Irritation Score: 4
Injured skin; [35]
  Irritation Grade: Moderate (Moderate irritation <6.0)
  Irritation Score: 4
Injured skin; [36]
  Irritation Grade: Moderate (Moderate irritation <6.0)
  Irritation Score: 4
Injured skin; [37]
  Irritation Grade: Moderate (Moderate irritation <6.0)
  Irritation Score: 4
Injured skin; [38]
  Irritation Grade: Moderate (Moderate irritation <6.0)
  Irritation Score: 3.5
Injured skin; [39]
  Irritation Grade: Moderate (Moderate irritation <6.0)
  Irritation Score: 3
Injured skin; [40]
  Irritation Grade: Moderate (Moderate irritation <6.0)
  Irritation Score: 2.5
Injured skin; [41]
  Irritation Grade: Mild (Mide irritation <2.09)
  Irritation Score: 2
Injured skin; [42]
  Irritation Grade: Mild (Mide irritation <2.09)
  Irritation Score: 2
Injured skin; 5 mg/ml, 0.5 ml, 4 h a day for 7 days on injured skin, Day 1, Treatment
  Irritation Score: 3.1
Injured skin; application of 0.05 mg/ml
  irritation on injured skin: did not cause any irritation
Injured skin; application of 0.5 mg/ml, after 24 h application, then began to alleviate
  irritation on injured skin: slight erythema
Injured skin; application of 5 mg/ml
  irritation on injured skin: mild to moderate erythema
Spleen cells; 0.001 ug/ml
  cytotoxicity: No
Spleen cells; 0.001 ug/ml, 570 nM
  OD value: 0.196 ± 0.006
Spleen cells; 0.01 ug/ml
  cytotoxicity: No
  OD value: 0.193 ± 0.007
Spleen cells; 0.1 ug/ml
  cytotoxicity: No
  OD value: 0.200 ± 0.011
Spleen cells; 1 ug/ml
  cytotoxicity: Yes
  OD value: 0.160 ± 0.004
Spleen cells; 10 ug/ml
  cytotoxicity: Yes
  OD value: 0.135 ± 0.003
Spleen cells; 100 ug/ml
  cytotoxicity: Yes
  OD value: 0.118 ± 0.011
Spleen cells; 1-100 μg/ml
  cytotoxic effects: cytotoxic effects in a dose-dependent manner
IFN-γ; 0.001 μg/ml
  IFN-γ: 237 ± 3 pg/mL
IFN-γ; 0.01 μg/ml
  IFN-γ: 230 ± 23 pg/mL
IFN-γ; 0.1 μg/ml
  IFN-γ: 143 ± 0 pg/mL
IFN-γ; 1 μg/ml
  IFN-γ: 95 ± 2 pg/mL
IFN-γ; 10 μg/ml
  IFN-γ: 98 ± 7 pg/mL
IFN-γ; 100 μg/ml
  IFN-γ: 89 ± 2 pg/mL
IL-12(p40); 0.001 μg/ml
  IL-12(p40): 501 ± 6 pg/mL
IL-12(p40); 0.01 μg/ml
  IL-12(p40): 446 ± 0 pg/mL
IL-12(p40); 0.1 μg/ml
  IL-12(p40): 444 ± 3 pg/mL
IL-12(p40); 1 μg/ml
  IL-12(p40): 293 ± 0 pg/mL
IL-12(p40); 10 μg/ml
  IL-12(p40): 86 ± 6 pg/mL
IL-12(p40); 100 μg/ml
  IL-12(p40): 72 ± 4 pg/mL
[1]
  stability on prolonged storage: at least 5 years
